Where “and” joins values, the source holds several entries; their conditions need not be identical. Equal values may be shown once.
Assays:
daphnias = assay: Biocidal activity against crustaceans (daphnias), FR. 1.39.2007,03223 procedure; conditions: test time 96 h; for Number of survived daphnias (the average over parallel set of samples), Test sample: control sample 10
E. coli No. 906 = assay: Bactericidal activity: exposure of bacterial culture in salt solution, neutralization, inoculation on solid nutrient medium; assay type: cell-based; parameters: key: NG - no growth; CG - confluent growth
S. aureus No. 1257 = assay: as above; assay type: cell-based; parameters: key: NG - no growth; CG - confluent growth
[1] = tested on: clinical strain P. aeruginosa; assay: as above; assay type: cell-based; parameters: key: NG - no growth; CG - confluent growth
[2] = tested on: E. coli No. 906, S. aureus No. 1257, clinical strain P. aeruginosa; assay: Bactericidal activity, summary statement over investigated strains; assay type: cell-based; conditions: concentration of 2.0%, time of exposure from 30 min
fungal spores = assay: Fungicidal activity according to GOST 30028.4-2006, resistance of treated materials to fungal spores; assay type: cell-based; conditions: additive content 5 % wt.
[3] = 0.00001 % wt. in aqueous medium
[4] = Paper impregnated with latex SKS 65 GP

Molecule: C=CC(=O)[O-].O=C([O-])c1ccccc1.[Cu+2] [Copper acrylate-benzoate, reference compound]
- Daphnia death rate in test sample, % of control sample (daphnias; [3]): 0 % of control sample
- Number of survived daphnias (the average over parallel set of samples), Test sample (daphnias; [3]): 10
- Daphnia death rate in test sample, % of control sample (daphnias; 0.0001 % wt. in aqueous medium): 0 % of control sample
- Number of survived daphnias (the average over parallel set of samples), Test sample (daphnias; 0.0001 % wt. in aqueous medium): 10
- Daphnia death rate in test sample, % of control sample (daphnias; 0.001 % wt. in aqueous medium): 0 % of control sample
- Number of survived daphnias (the average over parallel set of samples), Test sample (daphnias; 0.001 % wt. in aqueous medium): 10
- Daphnia death rate in test sample, % of control sample (daphnias; 0.01 % wt. in aqueous medium): 0 % of control sample
- Number of survived daphnias (the average over parallel set of samples), Test sample (daphnias; 0.01 % wt. in aqueous medium): 10
- Daphnia death rate in test sample, % of control sample (daphnias; 0.1 % wt. in aqueous medium): 10 % of control sample
- Number of survived daphnias (the average over parallel set of samples), Test sample (daphnias; 0.1 % wt. in aqueous medium): 9
- Daphnia death rate in test sample, % of control sample (daphnias; 1 % wt. in aqueous medium): 20 % of control sample
- Number of survived daphnias (the average over parallel set of samples), Test sample (daphnias; 1 % wt. in aqueous medium): 8

Molecule: C=CC(=O)[O][Cu][O]C(=O)C(O)C(O)C(=O)O (centres unmarked) [Copper acrylate-tartrate]
- Bactericidal activity, growth of E. coli 906 (E. coli No. 906; 1.5 % wt., exposure 60 min): NG
- Bactericidal activity, growth of E. coli 906 (E. coli No. 906; 2.0 % wt., exposure 5 min): NG
- Bactericidal activity, growth of E. coli 906 (E. coli No. 906; 2.0 % wt., exposure 15 min): NG
- Bactericidal activity, growth of E. coli 906 (E. coli No. 906; 2.0 % wt., exposure 30 min): NG
- Bactericidal activity, growth of E. coli 906 (E. coli No. 906; 2.0 % wt., exposure 60 min): NG
- Bactericidal activity, growth of E. coli 906 (E. coli No. 906; 3.0 % wt., exposure 5 min): NG
- Bactericidal activity, growth of E. coli 906 (E. coli No. 906; 3.0 % wt., exposure 15 min): NG
- Bactericidal activity, growth of E. coli 906 (E. coli No. 906; 3.0 % wt., exposure 30 min): NG
- Bactericidal activity, growth of S. aureus 1257 (S. aureus No. 1257; 1.5 % wt., exposure 60 min): NG
- Bactericidal activity, growth of S. aureus 1257 (S. aureus No. 1257; 2.0 % wt., exposure 5 min): NG
- Bactericidal activity, growth of S. aureus 1257 (S. aureus No. 1257; 2.0 % wt., exposure 15 min): NG
- Bactericidal activity, growth of S. aureus 1257 (S. aureus No. 1257; 2.0 % wt., exposure 30 min): NG
- Bactericidal activity, growth of S. aureus 1257 (S. aureus No. 1257; 2.0 % wt., exposure 60 min): NG
- Bactericidal activity, growth of S. aureus 1257 (S. aureus No. 1257; 3.0 % wt., exposure 5 min): NG
- Bactericidal activity, growth of S. aureus 1257 (S. aureus No. 1257; 3.0 % wt., exposure 15 min): NG
- Bactericidal activity, growth of S. aureus 1257 (S. aureus No. 1257; 3.0 % wt., exposure 30 min): NG
- Bactericidal activity, growth of P. aeruginosa ([1]; 1.5 % wt., exposure 30 min): CG
- Bactericidal activity, growth of P. aeruginosa ([1]; 1.5 % wt., exposure 60 min): CG
- Bactericidal activity, growth of P. aeruginosa ([1]; 2.0 % wt., exposure 5 min): CG
- Bactericidal activity, growth of P. aeruginosa ([1]; 2.0 % wt., exposure 15 min): >300 CFU
- Bactericidal activity, growth of P. aeruginosa ([1]; 2.0 % wt., exposure 60 min): NG
- Bactericidal activity, growth of P. aeruginosa ([1]; 3.0 % wt., exposure 5 min): NG
- Bactericidal activity, growth of P. aeruginosa ([1]; 3.0 % wt., exposure 15 min): NG
- Bactericidal activity, growth of P. aeruginosa ([1]; 3.0 % wt., exposure 30 min): NG
- bactericidal effect against investigated strains [2]: stable bactericidal effect
- Tolerance time (fungal spores; [4]): 16 days
- Tolerance time (fungal spores; Polyvinyl chloride emulsion): 17 days

Molecule: C=CC(=O)[O][Zn][O]C(=O)C(O)(CC(=O)O)CC(=O)O [Zinc acrylate-citrate]
- Tolerance time (fungal spores; Polyvinyl chloride emulsion): 17 days

Molecule: C=CC(=O)[O-].CC(O)C(=O)[O-].[Zn+2] (centres unmarked) [Zinc acrylate-lactate]
- Daphnia death rate in test sample, % of control sample (daphnias; 0.0001 % wt. in aqueous medium): 90 % of control sample
- Number of survived daphnias (the average over parallel set of samples), Test sample (daphnias; 0.0001 % wt. in aqueous medium): 1
- Daphnia death rate in test sample, % of control sample (daphnias; 0.001 % wt. in aqueous medium): 100 % of control sample and 70 % of control sample
- Daphnia death rate in test sample, % of control sample (daphnias; 0.01 % wt. in aqueous medium): 100 % of control sample
- Number of survived daphnias (the average over parallel set of samples), Test sample (daphnias; 0.01 % wt. in aqueous medium): 0
- Daphnia death rate in test sample, % of control sample (daphnias; 0.1 % wt. in aqueous medium): 100 % of control sample
- Number of survived daphnias (the average over parallel set of samples), Test sample (daphnias; 0.1 % wt. in aqueous medium): 0
- Daphnia death rate in test sample, % of control sample (daphnias; 1 % wt. in aqueous medium): 100 % of control sample
- Number of survived daphnias (the average over parallel set of samples), Test sample (daphnias; 1 % wt. in aqueous medium): 0

Molecule: C=CC(=O)[O][Zn][O]C(=O)CC(=O)O [Zinc acrylate-malonate]
- Bactericidal activity, growth of E. coli 906 (E. coli No. 906; 1.5 % wt., exposure 5 min): >300 CFU
- Bactericidal activity, growth of E. coli 906 (E. coli No. 906; 1.5 % wt., exposure 15 min): 78 CFU
- Bactericidal activity, growth of E. coli 906 (E. coli No. 906; 1.5 % wt., exposure 30 min): 45 CFU and 53 CFU
- Bactericidal activity, growth of E. coli 906 (E. coli No. 906; 1.5 % wt., exposure 60 min): 5 CFU and 4 CFU
- Bactericidal activity, growth of E. coli 906 (E. coli No. 906; 2.0 % wt., exposure 5 min): 1 CFU
- Bactericidal activity, growth of E. coli 906 (E. coli No. 906; 2.0 % wt., exposure 15 min): NG
- Bactericidal activity, growth of E. coli 906 (E. coli No. 906; 2.0 % wt., exposure 30 min): NG
- Bactericidal activity, growth of E. coli 906 (E. coli No. 906; 2.0 % wt., exposure 60 min): NG
- Bactericidal activity, growth of S. aureus 1257 (S. aureus No. 1257; 1.5 % wt., exposure 5 min): >300 CFU
- Bactericidal activity, growth of S. aureus 1257 (S. aureus No. 1257; 1.5 % wt., exposure 15 min): 85 CFU
- Bactericidal activity, growth of S. aureus 1257 (S. aureus No. 1257; 1.5 % wt., exposure 30 min): 35 CFU and 43 CFU
- Bactericidal activity, growth of S. aureus 1257 (S. aureus No. 1257; 2.0 % wt., exposure 5 min): NG
- Bactericidal activity, growth of S. aureus 1257 (S. aureus No. 1257; 2.0 % wt., exposure 15 min): NG
- Bactericidal activity, growth of S. aureus 1257 (S. aureus No. 1257; 2.0 % wt., exposure 30 min): NG
- Bactericidal activity, growth of S. aureus 1257 (S. aureus No. 1257; 2.0 % wt., exposure 60 min): NG
- bactericidal effect against investigated strains [2]: stable bactericidal effect
- Tolerance time (fungal spores; [4]): 20 days
- Tolerance time (fungal spores; Polyvinyl chloride emulsion): 18 days

Molecule: C=C(C)C(=O)O.O=C([O-])CC(O)C(=O)[O-].[Zn+2] (centres unmarked) [Zinc methacrylate-malate]
- Tolerance time (fungal spores; Polyvinyl chloride emulsion): 9 days

Molecule: copper methacrylate-glycolate
- Bactericidal activity, growth of E. coli 906 (E. coli No. 906; 1.5 % wt., exposure 30 min): CG
- Bactericidal activity, growth of E. coli 906 (E. coli No. 906; 1.5 % wt., exposure 60 min): >300 CFU
- Bactericidal activity, growth of E. coli 906 (E. coli No. 906; 2.0 % wt., exposure 5 min): CG
- Bactericidal activity, growth of E. coli 906 (E. coli No. 906; 2.0 % wt., exposure 15 min): >300 CFU
- Bactericidal activity, growth of E. coli 906 (E. coli No. 906; 2.0 % wt., exposure 30 min): NG
- Bactericidal activity, growth of E. coli 906 (E. coli No. 906; 2.0 % wt., exposure 60 min): NG
- Bactericidal activity, growth of E. coli 906 (E. coli No. 906; 3.0 % wt., exposure 5 min): NG
- Bactericidal activity, growth of E. coli 906 (E. coli No. 906; 3.0 % wt., exposure 15 min): NG
- Bactericidal activity, growth of E. coli 906 (E. coli No. 906; 3.0 % wt., exposure 30 min): NG
- Bactericidal activity, growth of S. aureus 1257 (S. aureus No. 1257; 1.5 % wt., exposure 30 min): CG
- Bactericidal activity, growth of S. aureus 1257 (S. aureus No. 1257; 1.5 % wt., exposure 60 min): >300 CFU
- Bactericidal activity, growth of S. aureus 1257 (S. aureus No. 1257; 2.0 % wt., exposure 5 min): CG
- Bactericidal activity, growth of S. aureus 1257 (S. aureus No. 1257; 2.0 % wt., exposure 15 min): >300 CFU
- Bactericidal activity, growth of S. aureus 1257 (S. aureus No. 1257; 2.0 % wt., exposure 30 min): NG
- Bactericidal activity, growth of S. aureus 1257 (S. aureus No. 1257; 2.0 % wt., exposure 60 min): NG
- Bactericidal activity, growth of S. aureus 1257 (S. aureus No. 1257; 3.0 % wt., exposure 5 min): NG
- Bactericidal activity, growth of S. aureus 1257 (S. aureus No. 1257; 3.0 % wt., exposure 15 min): NG
- Bactericidal activity, growth of S. aureus 1257 (S. aureus No. 1257; 3.0 % wt., exposure 30 min): NG
- Bactericidal activity, growth of P. aeruginosa ([1]; 1.5 % wt., exposure 30 min): CG
- Bactericidal activity, growth of P. aeruginosa ([1]; 1.5 % wt., exposure 60 min): CG
- Bactericidal activity, growth of P. aeruginosa ([1]; 2.0 % wt., exposure 5 min): CG
- Bactericidal activity, growth of P. aeruginosa ([1]; 2.0 % wt., exposure 15 min): >300 CFU
- Bactericidal activity, growth of P. aeruginosa ([1]; 2.0 % wt., exposure 60 min): NG
- Bactericidal activity, growth of P. aeruginosa ([1]; 3.0 % wt., exposure 5 min): NG
- Bactericidal activity, growth of P. aeruginosa ([1]; 3.0 % wt., exposure 15 min): NG
- Bactericidal activity, growth of P. aeruginosa ([1]; 3.0 % wt., exposure 30 min): NG
- bactericidal effect against investigated strains [2]: stable bactericidal effect
- Tolerance time (fungal spores; [4]): 8 days
- Tolerance time (fungal spores; Paper impregnated with petrolatum base): 8 days
- Tolerance time (fungal spores; Polyvinyl chloride emulsion): 10 days
- Number of survived daphnias (the average over parallel set of samples), Test sample (daphnias; [3]): 1
- Number of survived daphnias (the average over parallel set of samples), Test sample (daphnias; 0.0001 % wt. in aqueous medium): 0
- Number of survived daphnias (the average over parallel set of samples), Test sample (daphnias; 0.001 % wt. in aqueous medium): 0
- Number of survived daphnias (the average over parallel set of samples), Test sample (daphnias; 0.01 % wt. in aqueous medium): 0
- Number of survived daphnias (the average over parallel set of samples), Test sample (daphnias; 0.1 % wt. in aqueous medium): 0
- Number of survived daphnias (the average over parallel set of samples), Test sample (daphnias; 1 % wt. in aqueous medium): 0

Source: US9695103B2 (priority 2014, dated 2017)
